According to patent US20190382827A1, “USE OF MICROBIAL METABOLITES FOR TREATING DISEASES” (Yeda Research and Development Co. Ltd., priority 2015, published 2019):

Legend:
DSS colitis = assay: DSS colitis; format: in vivo, mouse; conditions: Asc-/- mice, IL-18 i.p. prior to induction of DSS colitis
Protocol: (§1) For IL-18 rescue experiments, recombinant IL-18 (MBL, Cat#B004-2) was injected intraperitoneally at a concentration of 1 μg per mouse for 5 days, and not injected for 2 days prior to DSS treatment. IL-18 injection to Swiss Webster germ-free mice and Nlrp6^−/− mice was performed twice a day for 3 days, while the mice were kept sterile using a cage-autonomous system (Hecht et al., 2014).
Mice were treated with 1.5% (w/v) DSS (M.W.=36,000-50,000 Da; MP Biomedicals) in their drinking water for 7 days followed by regular access to water. The animals were weighed daily and monitored for signs of distress as well as rectal bleeding.
For DSS rescue experiments, mice were receiving taurine in the drinking water prior to DSS treatment in a concentration of 100 mg/ml for 14 days.
Colonoscopy was performed using a high-resolution mouse video endoscopic system (Carl Storz, Tuttlingen, Germany). The severity of colitis was blindly scored using MEICS (Murine Endoscopic Index of Colitis Severity), which is based on five parameters: granularity of mucosal surface; vascular pattern; translucency of the colon mucosa; visible fibrin; and stool consistency (Becker et al., 2006).
On the day of the assay, 4 kDa fluorescein isothiocyanate (FITC)-dextran was dissolved in phosphate buffered saline (PBS) to a concentration of 80 mg ml^−1. Mice were fasted for 4 hours prior to gavage with 150 μl dextran. Mice were anesthetized 3 hours following gavage and blood was collected, centrifuged at 1,000×g for 12 min at 4° C. Serum was collected and fluorescence was quantified at an excitation wavelength of 485 nm and 535 nm emission wavelength.
DNA was extracted from liver samples (using MoBio PowerSoil kit). DNA concentration was calculated using a standard curve of known DNA concentrations from E. coli K12. 16S qPCR using primers identifying different regions of the V6 16S gene was performed using Kappa SYBR fast mix.
Absolute number of bacteria in the samples was then approximated as DNA amount in a sample/DNA molecule mass of bacteria.

colonic AMPs [1] = assay: IL-18 added to germ-free colon explants, AMP induction in-vitro; format: cell-based, mouse; conditions: GF colon explants, sterile conditions
Protocol: Colon explants were incubated with 70 mM of taurine (Sigma Aldrich, T0625), histamine (Sigma Aldrich, H7125) or spermine (Sigma Aldrich, S3256) for 24 hours. For AMP induction in-vitro, 3 μg IL-18 were added to colon explants for 7 hours, then the explants were maintained in RNAlater and RNA was extracted.
(§2) Tissues were preserved in RNAlater solution (Ambion) and subsequently homogenized in Tri Reagent (Fox et al.). RNA was purified according to the manufacturer's instructions. Two microgram of total RNA was used to generate cDNA (HighCapacity cDNA Reverse Transcription kit; Applied Biosystems). RealTime-PCR was performed using gene-specific primer/probe sets (Applied Biosystems) and Kapa Probe Fast qPCR kit (Kapa Biosystems) on a Viia7 instrument (Applied Biosystems). PCR conditions were 95° C. for 20 s, followed by 40 cycles of 95° C. for 3 s and 60° C. for 30 s. Data were analyzed using the deltaCt method with hprt serving as the reference housekeeping gene.

colonic AMPs [2] = assay: In-vivo injection of recombinant IL-18, colonic IL-18 and AMP levels; design: species or system mouse
Protocol: as §1
Concentrations of IL-18 in the serum or culture supernatants were measured using ELISA. Plates were coated over night with IL-18 (MBL, B004-2), incubated for 4 hours with supernatant or serum. Samples were then washed and plates were incubated with anti-mouse IL-18-biotin antibody (D048-6 MBL) for 1 hour and HRP-Avidin (BioLegend) for 1 hour before quantification.
as §2

intestinal microbiota = assay: In-vivo injection of recombinant IL-18, 16S microbiota analysis; design: species or system mouse
Protocol: as §1
Frozen fecal samples were processed for DNA isolation using the MoBio PowerSoil kit according to the manufacturer's instructions. For the 16S rRNA gene PCR amplification, ing of the purified fecal DNA was used for PCR amplification. Amplicons spanning the variable region 1/2 (V1/2) of the 16S rRNA gene were generated by using the following barcoded primers: Fwd 5′-XXXXXXXXAGAGTTTGATCCTGGCTCAG-3′ (SEQ ID NO: 1), Rev 5′-TGCTGCCTCCCGTAGGAGT-3′ (SEQ ID NO: 2), where X represents a barcode base. The reactions were subsequently pooled and cleaned (PCR clean kit, Promega), and the PCR products were then sequenced on an Illumina MiSeq in 500 bp paired-end method. The reads were then processed using the QIIME (Quantitative Insights Into Microbial Ecology, www(dot)qiime(dot)org) analysis pipeline as described (Caporaso et al., 2010; Elinav et al., 2011). In brief, fasta quality files and a mapping file indicating the barcode sequence corresponding to each sample were used as inputs, reads were split by samples according to the barcode, taxonomical classification was performed using the RDP-classifier, and an OTU table was created. Closed-reference OTU mapping was employed using the Greengenes database. Rarefaction was used to exclude samples with insufficient count of reads per sample. Sequences sharing 97% nucleotide sequence identity in the V2 region were binned into operational taxonomic units (97% ID OTUs). For beta-diversity, weighted unifrac measurements were plotted according to the two principal coordinates based on 1,000 reads per sample. The OTU tables used for our analyses are made accessible online.

NLRP6 inflammasome = assay: Colon explants cultured with metabolites (IL-18 ELISA, caspase-1 immunoblot, gene expression); format: cell-based, mouse; conditions: colon explants incubated for 24 hrs, compared with spermine
Protocol: Colons were excised and washed thoroughly with PBS, homogenized in RIPA buffer containing protease inhibitors, incubated for 20 min in 4° C. and centrifuged for 20 min, 14,000 rpm at 4° C. Samples were separated on 15% acrylamide gels and transferred onto nitrocellulose membranes. Western blot analysis was performed using anti-caspase 1 p20 polyclonal antibody (Adipogen, AG-20B-0042B-C100) and Goat anti mouse antibody (Jackson ImmunoResearch, 115-035-003). Band density was calculated using ImageJ software. Colon pieces, 0.5 cm long, from the proximal colon were removed, rinsed with PBS, and weighed. The tissue explants were cultured for 24 hrs in DMEM medium containing 10% FBS, L-glutamine, penicillin, and streptomycin at 37° C. Culture medium was collected, centrifuged and the resulting supernatant stored in aliquots at -20° C. Concentrations of IL-18 in the serum or culture supernatants were measured using ELISA. […] Samples were then washed and plates were incubated with anti-mouse IL-18-biotin antibody ([…]-6 MBL) for 1 hour and HRP-Avidin (BioLegend) for 1 hour before quantification. […] For AMP induction in-vitro, 3 μg IL-18 were added to colon explants for 7 hours, then the explants were maintained in RNAlater and RNA was extracted. Tissues were preserved in RNAlater solution (Ambion) and subsequently homogenized in Tri Reagent (Fox et al.). RNA was purified according to the manufacturer's instructions. Two microgram of total RNA was used to generate cDNA (HighCapacity cDNA Reverse Transcription kit; Applied Biosystems). RealTime-PCR was performed using gene-specific primer/probe sets (Applied Biosystems) and Kapa Probe Fast qPCR kit (Kapa Biosystems) on a Viia7 instrument (Applied Biosystems). PCR conditions were 95° C. for 20 s, followed by 40 cycles of 95° C. for 3 s and 60° C. for 30 s. Data were analyzed using the deltaCt method with hprt serving as the reference housekeeping gene.

microbiota = assay: Ang4 in-vitro culture of stool microbiota under anaerobic conditions; design: species or system mouse
Protocol: Murine Ang4 was expressed in E. coli and purified as previously described (Holloway et al, 2001). Stool pellets were collected and cultured in anaerobic conditions for 8 hours with rAng4, centrifuged and further analyzed using 16S rRNA sequencing.
Frozen fecal samples were processed for DNA isolation using the MoBio PowerSoil kit according to the manufacturer's instructions. For the 16S rRNA gene PCR amplification, ing of the purified fecal DNA was used for PCR amplification. […] The reads were then processed using the QIIME (Quantitative Insights Into Microbial Ecology, www(dot)qiime(dot)org) analysis pipeline as described (Caporaso et al., 2010; Elinav et al., 2011). In brief, fasta quality files and a mapping file indicating the barcode sequence corresponding to each sample were used as inputs, reads were split by samples according to the barcode, taxonomical classification was performed using the RDP-classifier, and an OTU table was created. […] Rarefaction was used to exclude samples with insufficient count of reads per sample. […] For beta-diversity, weighted unifrac measurements were plotted according to the two principal coordinates based on 1,000 reads per sample. […]

[3] = GF Nlrp6-/- mice, sterile administration
[4] = mice lacking NLRP6, ASC, or caspase-1/11

“IL-18: recombinant IL-18 (MBL, Cat#B004-2)” was tested, and the colitis severity (DSS colitis) was “diminished”, the colonoscopy score (DSS colitis) was “improved” and the weight loss (DSS colitis) was “reduced”. For the same molecule, the “levels of colonic AMPs” value (colonic AMPs [1]) was “restored normal levels”, the Ang4 (colonic AMPs [2]; [3]) was “induced” and the “defect in secretion of mature IL-18 protein” value (colonic AMPs [2]; [3]) was “rescued this defect”. For the same molecule, the “levels of colonic AMPs” value (colonic AMPs [2]; WT GF mice, in-vivo administration) was “restored normal levels”, the AMP levels (colonic AMPs [2]; [4]) was “restored” and the IL-18 levels (colonic AMPs [2]; [4]) was “restored”. For the same molecule, the microbiota configuration (intestinal microbiota; Asc- and Caspase-1/11-deficient mice) was “significant configuration changes”, the “aberrant microbiota composition, beta- and alpha-diversity” value (intestinal microbiota; Caspase-1/11-/- mice) was “corrected” and the “abundance of multiple commensal bacteria” value (intestinal microbiota; Caspase-1/11-/- mice, relative to WT levels) was “restored”. For the same molecule, the microbial community composition (intestinal microbiota; Nlrp6-/- mice) was “marked compositional changes”, the microbiota composition (intestinal microbiota; WT mice) was “not affected” and the “dominant transmission of the dysbiotic microbiota configuration” value (intestinal microbiota; WT recipients cohoused with inflammasome-deficient mice) was “prevented”. For the same molecule, the “UniFrac distance to cohousing partners” value (intestinal microbiota; grWT(Asc-/-) mice injected with IL-18) was “increased”.

In the case of `NCCCCN` [putrescine], the “IL-18 in colon explants” value (NLRP6 inflammasome) is reported as “equally suppressed”.

B1: Ang4: Murine Ang4 expressed in E. coli and purified; antimicrobial peptide (protein, UniProt Q3TMQ6 25-144, looked up)
Angiogenin-4: QNERYEKFLRQHYDAKPNGRDDRYCESMMKERKLTSPCKDVNTFIHGTKKNIRAICGKKGSPYGENFRISNSPFQITTCTHSGASPRPPCGYRAFKDFRYIVIACEDGWPVHFDESFISP
For B1, the beta- and alpha-diversity (microbiota; anaerobic in-vitro microbiome cultures of Asc-/- mice) was “partially restored” and the “impact on overall community composition” value (microbiota; microbiota from Asc-/- mice compared with WT mice) was “greater”.
